From patent publication US11116713B2, “Oral care compositions and methods” (priority 2018, dated 2021)

Test system: Streptococcus mutans
Test: Killing efficacy against Streptococcus mutans in vitro (cfu count after treatment)
Format: cell-based
Details: inoculum 2.71×10^4 cfu/ml, FIG. 1
Experimental: Because the primary bacterium responsible for dental caries (cavities) is Streptococcus mutans, the killing efficacy of agmatine and EGCG, alone and in combination, was determined against Streptococcus mutans. Killing efficacy was measured in vitro using Streptococcus mutans cells grown in brain heart infusion (BHI) plates for at least 24-48 hours at 37° C. Each experiment was initiated by collecting an individual colony from the BHI plate and growning the colony overnight at 37° C. and 5% CO2 in BHI liquid media. Streptococcus mutans cells were then passaged 2 times in chemically defined media for Streptococcus mutans and grown overnight at 37° C. and 5% CO2. The absorbance at A600 of the culture was measured to determine the bacterial cell concentration of the inoculum. Once the desired bacterial concentration was reached, Streptococcus mutans inoculum was plated on cell culture plates previously prepared with a range of concentrations of EGCG alone, agmatine alone, or EGCG and agmatine in combination. The plates streaked with inoculum were incubated for at least 24 hours at 37° C. and 5% CO2. After incubation, the cells were transferred to sterile tubes, plated on BHI plate using an Autoplate 4000, and incubated for at least 36 hours at 37° C. Colonies were counted and colony forming units (cfu) were calculated as recommended by Autoplate 4000 guide. […]

SMILES	bacterial concentration of Streptococcus mutans following treatment (50 μg/ml EGCG alone)	bacterial concentration of Streptococcus mutans following treatment (7.5 mg/ml agmatine alone)
O=C(O[C@@H]1Cc2c(O)cc(O)cc2O[C@@H]1c1cc(O)c(O)c(O)c1)c1cc(O)c(O)c(O)c1 [EGCG, epigallocatechin gallate]	6.00×10^1 cfu/ml	
NCCCCN=C(N)N [agmatine, (4-aminobutyl)guanidine]		6.50×10^1 cfu/ml
